Reference: paper PMC8841438 (Clinical and Translational Science, 2021)
Read-outs that look alike come from different tables or passages of the source.

Columns and labels:
cytochrome P450 enzymes = details: cited from earlier work
P‐glycoprotein = details: in vitro; cited from earlier work
[1] = type: in vivo, human
P‐gp = details: in vitro; at clinically relevant concentrations; cited from earlier work
[2] = study 1, filgotinib 100 mg with itraconazole 200 mg vs alone
[3] = study 1, filgotinib + itraconazole vs filgotinib alone

- Tmax ([1]; human, plasma, oral): 1 h
- half-life ([1]; human, plasma, oral): 6.26 h
- AUC(0-inf) ([1]; human, plasma, oral, 100 mg): 2190 ng·h/mL
- AUC(0-t) ([1]; human, plasma, oral, 100 mg): 2170 ng·h/mL
- Cmax ([1]; human, plasma, oral, 100 mg): 756 ng/mL
- Tmax ([1]; human, plasma, oral, 100 mg): 1 h
- half-life ([1]; human, plasma, oral, 100 mg): 7.4 h
- increase in AUCinf by itraconazole [1, 2]: 45%
- increase in C max by itraconazole [1, 2]: 64%
- AUCinf %GLSM ratio (90% CI) [1, 3]: 145 (133, 157) %
- AUClast %GLSM ratio (90% CI) [1, 3]: 145 (133, 158) %
- C max %GLSM ratio (90% CI) [1, 3]: 164 (129, 208) %
- effect of itraconazole on pharmacokinetic parameters (in words) ([1]; study 1, filgotinib: Tmax, t1/2, GS‐829845: C max, AUCinf, T max, t 1/2): did not affect
- CL/F ([1]; study 1, single filgotinib 100 mg alone, fasting, mean (%CV), N = 13): 48.6 (25.0) L/h
Structure (SMILES): O=C(Nc1nc2cccc(-c3ccc(CN4CCS(=O)(=O)CC4)cc3)n2n1)C1CC1 [Filgotinib]
- drug‐drug interactions (DDIs) liability with cytochrome P450 enzymes (cytochrome P450 enzymes; in vitro and in vivo data): relatively low
- substrate of the cytochrome P450 enzymes (cytochrome P450 enzymes; in vitro data, no reference given): not a substrate
- substrate of P‐glycoprotein (P‐glycoprotein): substrates
- inhibition of P‐gp (P‐gp): not inhibitors
